Reference: publication PMC8134483 (Scientific Reports, 2021)
Entries after “also recorded” stand apart in the source; their conditions may differ. Like-named read-outs stand apart in the source and are kept apart here.

What was measured:
hCB2R [1] = target: T1, hCB2R (Homo sapiens, UniProt P34972); assay: [^3H]CP55,940 competition (radioligand displacement) binding to CB2R; details: for CB2R [^3H]CP55,940 Emin: bottom of the concentration–response curve, mean ± SEM
T1 construct: host or cells: CHO-K1 (PathHunter)

hCB1R [2] = target: T2, hCB1R (Homo sapiens, UniProt P21554); assay: cell-based; assay type: cell-based; details: for EC50: CHO hCB1R, 10 µM FSK, 90 min, value with 95% CI, read-out: CB1R cAMP Inhibition EC50; for Emax: read-out: CB1R cAMP Inhibition Emax; for CB1R-dependent inhibition of FSK-stimulated cAMP, activity in words: relative to CP55940
T2 construct: expressed in transfected cells; host or cells: CHO-K1

hCB2R [3] = target: T1, hCB2R; assay: CB2R bias analysis (operational model, cAMP inhibition vs βarrestin2); assay type: cell-based; details: CP55,940 as reference agonist; >0 cAMP bias, <0 βarrestin2 bias
Protocol: Estimates of Ki, EC50, Emin, and Emax were determined using non-linear regression with variable slope (four parameters) (GraphPad, Prism, v. 8.0). […] One-way analysis of variance (ANOVA), followed by Tukey’s post-hoc test, was used for statistical analyses (p < 0.05 determined to be significant); and Bartlett’s test was used to confirm homogeneity of variance (GraphPad).

hCB1R [4] = target: T2, hCB1R; assay: biochemical; assay type: binding; details: for CB1R [^3H]CP55,940 Emin: bottom of the concentration–response curve, mean ± SEM; for CB1R versus CB2R selectivity, receptor affinity: CB1R vs CB2R [^3H]CP55,940 binding
hCB1R [5] = target: T2, hCB1R; assay: cell-based; assay type: cell-based; details: for CB1R versus CB2R selectivity, βarrestin2 recruitment: CB1R vs CB2R; for EC50: CHO hCB1R, 90 min, value with 95% CI, read-out: CB1R βarrestin2 recruitment EC50; for Emax: read-out: CB1R βarrestin2 recruitment Emax; for βarrestin2 recruitment to CB1R, activity in words: relative to CP55940
hCB2R [6] = target: T1, hCB2R; assay: HitHunter inhibition of FSK-stimulated cAMP, CB2R; assay type: cell-based
hCB2R [7] = target: T1, hCB2R; assay: PathHunter βarrestin2 recruitment, CB2R; assay type: cell-based; details: for βarrestin2 recruitment to CB2R, activity in words: relative to CP55,940

T2 sequence (P21554 whole entry): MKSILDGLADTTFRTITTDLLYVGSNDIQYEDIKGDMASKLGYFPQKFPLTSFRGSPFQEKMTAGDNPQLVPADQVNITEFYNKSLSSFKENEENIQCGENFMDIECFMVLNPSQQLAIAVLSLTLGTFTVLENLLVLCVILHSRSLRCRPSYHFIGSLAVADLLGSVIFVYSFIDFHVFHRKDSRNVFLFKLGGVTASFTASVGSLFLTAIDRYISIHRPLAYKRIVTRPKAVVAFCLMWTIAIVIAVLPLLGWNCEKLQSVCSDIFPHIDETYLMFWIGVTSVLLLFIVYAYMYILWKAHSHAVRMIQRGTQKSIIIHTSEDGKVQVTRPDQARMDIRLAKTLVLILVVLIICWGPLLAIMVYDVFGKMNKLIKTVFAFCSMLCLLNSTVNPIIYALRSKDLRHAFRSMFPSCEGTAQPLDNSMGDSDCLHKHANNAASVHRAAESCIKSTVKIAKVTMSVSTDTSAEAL
T1 sequence (P34972 whole entry): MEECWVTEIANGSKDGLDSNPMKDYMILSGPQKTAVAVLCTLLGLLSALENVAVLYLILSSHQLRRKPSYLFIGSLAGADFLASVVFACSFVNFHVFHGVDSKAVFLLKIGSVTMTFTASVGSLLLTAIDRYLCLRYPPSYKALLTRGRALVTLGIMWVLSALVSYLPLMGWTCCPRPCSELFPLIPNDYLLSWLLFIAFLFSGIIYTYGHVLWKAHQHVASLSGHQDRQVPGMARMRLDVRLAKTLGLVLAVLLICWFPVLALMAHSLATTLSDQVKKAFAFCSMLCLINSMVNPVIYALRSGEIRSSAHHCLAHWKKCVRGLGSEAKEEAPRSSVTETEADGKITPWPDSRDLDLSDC

Structure (SMILES)	Affinity for CB2R compared with CP55,940, in words (hCB2R [1])	Ki (hCB2R [1]) [nM]	CB2R [^3H]CP55,940 Emin (hCB2R [1]) [%]	EC50 (hCB1R [2]) [nM]	Emax (hCB1R [2]) [%]	CB2R bias between cAMP inhibition and βarrestin2 recruitment, ∆∆LogR (cAMP—βarr2), in words (hCB2R [3])	Ki (hCB1R [4]) [nM]	CB1R [^3H]CP55,940 Emin (hCB1R [4]) [%]	EC50 (hCB1R [5]) [µM]	Emax (hCB1R [5]) [%]	EC50 (hCB2R [6]) [nM]	Emax (hCB2R [6]) [%]	EC50 (hCB2R [7]) [nM]	Emax (hCB2R [7]) [%]	βarrestin2 recruitment to CB2R, activity in words (hCB2R [7])	CB1R versus CB2R selectivity, cAMP inhibition potency (hCB1R [2]; CB1R vs CB2R)	CB1R versus CB2R selectivity, receptor affinity (hCB1R [4])	βarrestin2 recruitment to CB1R, activity in words (hCB1R [5])	other results
COC(=O)[C@H](Cc1ccccc1)NC(=O)c1cn(CCCCCF)c2ccccc12 [5-fluoro MPP-PICA]	significantly less affinity	540	89 ± 6.3	6.4	92 ± 6.8	did not display a bias	1200	59 ± 18	> 10	170 ± 9.8	12	110 ± 13	630	82 ± 1.9	not different with regard to potency relative to the reference agonist CP55,940, and produced supramaximal EMax responses	–	–	–	Affinity for CB1R compared with CP55,940, in words (hCB1R [4]): significantly less affinity; CB1R versus CB2R selectivity, βarrestin2 recruitment (hCB1R [5]): minimally active at CB1R but agonists at CB2R
N#CCCCCn1cc(C(=O)c2cccc3ccccc23)c2ccccc21 [AM 2232]	significantly less affinity	600	73 ± 6.2	190	100 ± 9.3	significant bias toward the inhibition of cAMP	0.31	66 ± 3.6	> 10	68 ± 1.6	1.7	86 ± 1.9	130	130 ± 19	greater potency and produced supramaximal EMax responses	more potent at CB2R relative to CB1R	greater affinity at CB1R relative to CB2R	–	CB1R-dependent inhibition of FSK-stimulated cAMP, activity in words (hCB1R [2]): significantly lower potency relative to CP55940, but retained full (i.e., 100%) efficacy
O=C(c1ccc(Cl)c2ccccc12)c1cn(CCCCCF)c2ccccc12 [Cl 2201]	–	26	66 ± 2.5	2.6	89 ± 3.9	significant bias toward the inhibition of cAMP	0.09	76 ± 2.8	> 10	16 ± 1	1	110 ± 8.4	120	17 ± 1.1	–	–	greater affinity at CB1R relative to CB2R	Inactive at βarrestin2	–
CCCCCn1c2ccccc2c2cc(C(=O)c3cccc4ccccc34)ccc21 [EG 018]	significantly greater affinity	1.9	53 ± 4.0	–	104 ± 18	significant bias toward the inhibition of cAMP	–	68 ± 6.1	–	5.2 ± 0.54	–	85 ± 17	–	10 ± 1.9	–	–	–	Inactive at βarrestin2	CB1R-dependent inhibition of FSK-stimulated cAMP, activity in words (hCB1R [2]): significantly lower potency relative to CP55940, but retained full (i.e., 100%) efficacy; EC50 (hCB2R [6]; CHO hCB2R, 10 µM FSK, 90 min, value with 95% CI, read-out: CB2R cAMP Inhibition EC50): 51 nM; EC50 (hCB2R [7]; CHO hCB2R, 90 min, value with 95% CI, read-out: CB2R βarrestin2 recruitment EC50): 770 nM
O=C(Nc1cccc2ccccc12)c1cn(Cc2ccc(F)cc2)c2ccccc12 [FDU-NNEI]	–	8.8	85 ± 8.1	1	96 ± 8.1	significant bias toward the inhibition of cAMP	14	41 ± 2.8	> 10	49 ± 8.2	0.01	103 ± 7.1	1000	25 ± 1.3	–	–	greater affinity at CB1R relative to CB2R	–	CB1R versus CB2R selectivity, [^3H]CP55,940 displaced (hCB1R [4]; CB1R vs CB2R): displaced more [^3H]CP55,940 at CB1R relative to CB2R
CCCCCn1cc(C(=O)c2cccc3ccccc23)cc1-c1ccccc1 [JWH 145]	significantly less affinity	860	70 ± 6.1	0.03	82 ± 9.3	significant bias toward the inhibition of cAMP	110	69 ± 7.6	> 10	27 ± 9	61	86 ± 17	190	15 ± 1.7	–	more potent at CB1R relative to CB2R	–	–	–
CCCCCn1cc(C(=O)c2ccc(CCC)c3ccccc23)c2ccccc21 [JWH 182]	–	6.2	21 ± 1.7	24	78 ± 9.4	obligate cAMP-biased ligands	0.77	17 ± 2.2	1.6	110 ± 9.2	25	120 ± 11	> 10000	13 ± 1.8	inactive in βarrestin2; also recorded: Inactive at βarrestin2	–	–	equipotent, but produced supramaximal EMax responses	CB1R versus CB2R selectivity, cAMP inhibition efficacy (hCB1R [2]; CB1R vs CB2R): greater efficacy at CB2R than CB1R; CB1R versus CB2R selectivity, βarrestin2 recruitment (hCB1R [5]): inactive at CB2R but an agonist at CB1R
Cc1ccc(C(=O)c2cn(CCCCCCl)c3ccccc23)c2ccccc12 [MAM2201 N-(5-chloropentyl) analog]	significantly less affinity	> 10000	40 ± 3.8	2.8	98 ± 8.7	obligate cAMP-biased ligands	10	5.3 ± 3.0	> 10	17 ± 2.7	580	120 ± 25	> 10000	5.5 ± 1.9	inactive in βarrestin2	more potent at CB1R relative to CB2R	greater affinity at CB1R relative to CB2R	Inactive at βarrestin2	βarrestin2 recruitment to CB2R, activity in words (hCB2R [7]; listed as MAM-2201 N-(5-chloropentyl) analog): Inactive at βarrestin2
